Test results from ChEMBL document CHEMBL3745697, “Identification of azabenzimidazoles as potent JAK1 selective inhibitors” (Bioorg Med Chem Lett, 2016).
Activity calls are given as the source filed them. The calls are words filed in the database; no cut-off is given here.

Assays:
[1] = biological target: Cyclin-dependent kinase 2/cyclin E1 (Homo sapiens, UniProt P24941); assay: Inhibition of N-terminal 6His-tagged human recombinant full length CDK2 (1 to 304 residues)/Cyclin E1 (1 to 410 residues) expressed in insect cells using FL-Ahx-QSPKKG-CONH2 as substrate by microfluidic capillary electrophoresis method
[2] = biological target: T1, Tyrosine-protein kinase JAK3 (Homo sapiens, UniProt P52333); assay: Inhibition of N-terminal GST-fused recombinant JAK3 (781 to 1124 residues) (unknown origin) expressed in insect cells using 5FAM-GEEPLYWSFPAKKK-NH2 as substrate by microfluidic capillary electrophoresis method
T1 sequence (P52333 whole entry): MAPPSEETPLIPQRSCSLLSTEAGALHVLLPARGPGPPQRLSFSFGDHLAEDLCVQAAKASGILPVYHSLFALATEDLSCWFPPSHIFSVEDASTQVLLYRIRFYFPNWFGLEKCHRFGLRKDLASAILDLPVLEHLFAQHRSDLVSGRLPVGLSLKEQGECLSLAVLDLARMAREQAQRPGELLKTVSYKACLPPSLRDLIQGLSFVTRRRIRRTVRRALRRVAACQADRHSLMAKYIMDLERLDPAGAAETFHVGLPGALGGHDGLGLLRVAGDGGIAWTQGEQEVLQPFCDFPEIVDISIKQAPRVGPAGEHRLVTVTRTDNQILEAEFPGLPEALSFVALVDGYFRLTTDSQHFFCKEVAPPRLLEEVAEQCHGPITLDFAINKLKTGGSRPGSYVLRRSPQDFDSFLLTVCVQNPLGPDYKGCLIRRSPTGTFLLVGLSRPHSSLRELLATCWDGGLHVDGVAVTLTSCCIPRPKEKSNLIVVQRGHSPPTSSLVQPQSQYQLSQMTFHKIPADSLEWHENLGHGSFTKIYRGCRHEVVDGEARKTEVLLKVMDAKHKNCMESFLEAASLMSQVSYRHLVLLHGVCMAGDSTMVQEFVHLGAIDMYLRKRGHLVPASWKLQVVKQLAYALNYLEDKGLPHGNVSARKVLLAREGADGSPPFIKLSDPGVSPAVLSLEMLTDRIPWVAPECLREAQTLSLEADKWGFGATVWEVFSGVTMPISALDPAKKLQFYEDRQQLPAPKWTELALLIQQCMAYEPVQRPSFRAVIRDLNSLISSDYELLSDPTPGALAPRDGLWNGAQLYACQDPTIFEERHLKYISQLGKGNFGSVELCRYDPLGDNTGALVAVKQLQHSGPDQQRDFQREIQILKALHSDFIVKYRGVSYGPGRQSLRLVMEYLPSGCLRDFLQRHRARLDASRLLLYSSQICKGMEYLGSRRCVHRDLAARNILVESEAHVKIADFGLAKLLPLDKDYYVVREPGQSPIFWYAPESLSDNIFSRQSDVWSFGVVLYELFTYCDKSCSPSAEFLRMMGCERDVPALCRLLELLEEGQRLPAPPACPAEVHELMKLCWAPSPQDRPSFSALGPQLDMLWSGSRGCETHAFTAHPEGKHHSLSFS

Homo sapiens = species on record: Homo sapiens; assay: Selectivity ratio of IC50 for N-terminal GST-fused recombinant JAK2 (831 to 1132 residues) (unknown origin) to N-terminal GST-fused human recombinant JAK1 (866 to 1154 residues)
[3] = biological target: T2, Tyrosine-protein kinase JAK2 (Homo sapiens, UniProt O60674); assay: Inhibition of N-terminal GST-fused recombinant JAK2 (831 to 1132 residues) (unknown origin) expressed in insect cells using 5FAM-GEEPLYWSFPAKKK-NH2 as substrate by microfluidic capillary electrophoresis method
[4] = biological target: T3, Tyrosine-protein kinase JAK1 (Homo sapiens, UniProt P23458); assay: Inhibition of N-terminal GST-fused human recombinant JAK1 (866 to 1154 residues) expressed in insect cells using FITC-C6-KKHTDDGYMPMSPGVA-NH2 as substrate by microfluidic capillary electrophoresis method
[5] = biological target: Non-receptor tyrosine-protein kinase TYK2 (Homo sapiens, UniProt P29597); assay: Inhibition of N-terminal 6His-tagged human recombinant Tyk2
Aurora kinase B = Aurora kinase B (Homo sapiens, UniProt Q96GD4); assay: Inhibition of GST-INCENP activated N-terminal 6His-tagged human recombinant full length Aurora B (1 to 344 residues) expressed in baculovirus expression system using 5FAM-LRRASLG as substrate by microfluidic capillary electrophoresis method
[6] = biological target: T3, Tyrosine-protein kinase JAK1; assay: Inhibition of JAK1 in human NCI-H1975 cells assessed as reduction in STAT3 phosphorylation after 2 hrs; assay type: cell-based
[7] = biological target: T2, Tyrosine-protein kinase JAK2; assay: Inhibition of JAK2 in human HEL 92.1.7 cells assessed as reduction in STAT5 phosphorylation after 2 hrs by Western blot analysis; assay type: cell-based
[8] = biological target: T3, Tyrosine-protein kinase JAK1; assay: Inhibition of JAK1 in human NCI-H1975 cells assessed as reduction in STAT3 phosphorylation at 0.003 to 3 uM after 2 hrs by Western blot analysis; assay type: cell-based
[9] = Cell cycle arrest in human SW620 cells assessed as accumulation at Sub G1 phase at 1 uM after 24 hrs by propidium iodide staining-based flow cytometric analysis (reference value: 1.6%); assay type: functional; details: SW-620
[10] = Cell cycle arrest in human SW620 cells assessed as accumulation at G2/M phase at 10 uM after 24 hrs by propidium iodide staining-based flow cytometric analysis (reference value: 17.4%); assay type: functional; details: SW-620
[11] = Cell cycle arrest in human SW620 cells assessed as accumulation at S phase at 1 uM after 24 hrs by propidium iodide staining-based flow cytometric analysis (reference value: 13.9%); assay type: functional; details: SW-620
Mus musculus [12] = assay: Inhibition of JAK1-mediated STAT3 phosphorylation in human NCI-H1975 cells xenografted in NCr nude mouse at 200 mg/kg, po administered as single dose after 1.5 hrs by Western blot analysis; assay type: functional
[13] = Cell cycle arrest in human SW620 cells assessed as accumulation at G2/M phase at 1 uM after 24 hrs by propidium iodide staining-based flow cytometric analysis (reference value: 17.4%); assay type: functional; details: SW-620
Mus musculus [14] = assay: Inhibition of JAK1-mediated STAT3 phosphorylation in human NCI-H1975 cells xenografted in NCr nude mouse at 200 mg/kg, po administered as single dose after 8 hrs by Western blot analysis; assay type: functional, organism-based
[15] = Cell cycle arrest in human SW620 cells assessed as accumulation at Sub G1 phase at 10 uM after 24 hrs by propidium iodide staining-based flow cytometric analysis (reference value: 1.6%); assay type: functional; details: SW-620
[16] = Cell cycle arrest in human SW620 cells assessed as multi-nuclear cells at 10 uM after 24 hrs by propidium iodide staining-based flow cytometric analysis (reference value: 5%); assay type: functional; details: SW-620
[17] = Cell cycle arrest in human SW620 cells assessed as accumulation at G1 phase at 1 uM after 24 hrs by propidium iodide staining-based flow cytometric analysis (reference value: 61.4%); assay type: functional; details: SW-620
[18] = Cell cycle arrest in human SW620 cells assessed as accumulation at S phase at 10 uM after 24 hrs by propidium iodide staining-based flow cytometric analysis (reference value: 13.9%); assay type: functional; details: SW-620
[19] = Cell cycle arrest in human SW620 cells assessed as accumulation at G1 phase at 10 uM after 24 hrs by propidium iodide staining-based flow cytometric analysis (reference value: 61.4%); assay type: functional; details: SW-620
[20] = Cell cycle arrest in human SW620 cells assessed as multi-nuclear cells at 1 uM after 24 hrs by propidium iodide staining-based flow cytometric analysis (reference value: 5%); assay type: functional; details: SW-620

Chain of Non-receptor tyrosine-protein kinase TYK2 (P29597 whole entry, the tested form may be a part): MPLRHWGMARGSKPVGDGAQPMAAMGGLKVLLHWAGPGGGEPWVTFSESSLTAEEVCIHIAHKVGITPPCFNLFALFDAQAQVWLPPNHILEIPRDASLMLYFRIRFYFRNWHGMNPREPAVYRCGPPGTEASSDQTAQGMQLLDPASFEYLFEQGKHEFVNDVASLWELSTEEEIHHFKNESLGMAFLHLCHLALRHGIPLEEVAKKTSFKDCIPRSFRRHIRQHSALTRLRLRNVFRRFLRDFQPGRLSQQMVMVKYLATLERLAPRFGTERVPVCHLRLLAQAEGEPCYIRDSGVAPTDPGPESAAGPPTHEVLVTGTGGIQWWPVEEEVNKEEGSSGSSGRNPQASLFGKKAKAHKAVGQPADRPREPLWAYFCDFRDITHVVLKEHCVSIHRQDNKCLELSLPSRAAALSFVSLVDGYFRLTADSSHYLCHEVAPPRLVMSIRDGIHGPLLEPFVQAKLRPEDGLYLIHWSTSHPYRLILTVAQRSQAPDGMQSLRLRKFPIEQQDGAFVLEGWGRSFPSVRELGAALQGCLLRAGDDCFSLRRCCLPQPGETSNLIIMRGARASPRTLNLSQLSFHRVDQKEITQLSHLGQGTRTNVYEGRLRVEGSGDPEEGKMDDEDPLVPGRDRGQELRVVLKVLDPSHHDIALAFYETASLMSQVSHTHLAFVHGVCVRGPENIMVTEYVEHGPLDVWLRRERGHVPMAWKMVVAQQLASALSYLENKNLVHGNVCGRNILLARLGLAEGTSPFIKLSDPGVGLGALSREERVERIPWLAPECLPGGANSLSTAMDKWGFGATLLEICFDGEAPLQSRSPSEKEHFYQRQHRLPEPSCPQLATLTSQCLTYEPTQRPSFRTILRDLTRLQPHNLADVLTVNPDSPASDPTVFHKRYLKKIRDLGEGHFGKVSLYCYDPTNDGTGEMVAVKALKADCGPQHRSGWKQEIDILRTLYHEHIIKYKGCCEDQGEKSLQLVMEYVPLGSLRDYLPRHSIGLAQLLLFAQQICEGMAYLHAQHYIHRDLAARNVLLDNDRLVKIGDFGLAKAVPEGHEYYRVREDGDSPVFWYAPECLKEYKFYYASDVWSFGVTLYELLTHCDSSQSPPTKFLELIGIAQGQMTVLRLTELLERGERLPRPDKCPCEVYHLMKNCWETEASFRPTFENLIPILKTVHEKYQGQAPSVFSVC
T2 sequence (O60674 whole entry, the tested form may be a part): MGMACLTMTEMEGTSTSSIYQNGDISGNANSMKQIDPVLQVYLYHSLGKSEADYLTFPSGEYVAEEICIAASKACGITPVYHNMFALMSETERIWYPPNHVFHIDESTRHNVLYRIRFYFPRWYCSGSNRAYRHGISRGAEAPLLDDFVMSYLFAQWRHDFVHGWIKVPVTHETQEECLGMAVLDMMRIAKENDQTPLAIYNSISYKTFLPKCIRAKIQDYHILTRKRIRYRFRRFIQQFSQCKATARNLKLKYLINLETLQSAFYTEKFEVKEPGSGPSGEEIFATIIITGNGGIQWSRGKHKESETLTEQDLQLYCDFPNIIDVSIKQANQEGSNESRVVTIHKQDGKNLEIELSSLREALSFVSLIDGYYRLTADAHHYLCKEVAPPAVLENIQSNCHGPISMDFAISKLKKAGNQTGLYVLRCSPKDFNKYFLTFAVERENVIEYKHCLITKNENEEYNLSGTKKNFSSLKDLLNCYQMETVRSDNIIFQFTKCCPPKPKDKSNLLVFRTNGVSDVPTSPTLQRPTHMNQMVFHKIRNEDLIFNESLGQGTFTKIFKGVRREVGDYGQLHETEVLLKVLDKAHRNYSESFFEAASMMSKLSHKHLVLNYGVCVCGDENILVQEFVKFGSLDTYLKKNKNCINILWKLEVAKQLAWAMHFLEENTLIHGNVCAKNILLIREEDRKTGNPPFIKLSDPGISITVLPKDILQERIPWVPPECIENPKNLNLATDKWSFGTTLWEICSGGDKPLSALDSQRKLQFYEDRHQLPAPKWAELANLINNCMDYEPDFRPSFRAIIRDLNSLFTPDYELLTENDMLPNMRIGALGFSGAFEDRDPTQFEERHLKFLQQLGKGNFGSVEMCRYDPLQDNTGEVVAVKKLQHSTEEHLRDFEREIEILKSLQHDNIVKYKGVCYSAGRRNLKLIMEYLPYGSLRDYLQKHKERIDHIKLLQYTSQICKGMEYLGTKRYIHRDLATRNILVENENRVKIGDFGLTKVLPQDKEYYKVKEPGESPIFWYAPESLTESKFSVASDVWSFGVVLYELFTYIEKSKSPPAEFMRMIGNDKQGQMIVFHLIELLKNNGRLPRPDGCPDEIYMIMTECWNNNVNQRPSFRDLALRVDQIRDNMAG
T3 sequence (P23458 whole entry, the tested form may be a part): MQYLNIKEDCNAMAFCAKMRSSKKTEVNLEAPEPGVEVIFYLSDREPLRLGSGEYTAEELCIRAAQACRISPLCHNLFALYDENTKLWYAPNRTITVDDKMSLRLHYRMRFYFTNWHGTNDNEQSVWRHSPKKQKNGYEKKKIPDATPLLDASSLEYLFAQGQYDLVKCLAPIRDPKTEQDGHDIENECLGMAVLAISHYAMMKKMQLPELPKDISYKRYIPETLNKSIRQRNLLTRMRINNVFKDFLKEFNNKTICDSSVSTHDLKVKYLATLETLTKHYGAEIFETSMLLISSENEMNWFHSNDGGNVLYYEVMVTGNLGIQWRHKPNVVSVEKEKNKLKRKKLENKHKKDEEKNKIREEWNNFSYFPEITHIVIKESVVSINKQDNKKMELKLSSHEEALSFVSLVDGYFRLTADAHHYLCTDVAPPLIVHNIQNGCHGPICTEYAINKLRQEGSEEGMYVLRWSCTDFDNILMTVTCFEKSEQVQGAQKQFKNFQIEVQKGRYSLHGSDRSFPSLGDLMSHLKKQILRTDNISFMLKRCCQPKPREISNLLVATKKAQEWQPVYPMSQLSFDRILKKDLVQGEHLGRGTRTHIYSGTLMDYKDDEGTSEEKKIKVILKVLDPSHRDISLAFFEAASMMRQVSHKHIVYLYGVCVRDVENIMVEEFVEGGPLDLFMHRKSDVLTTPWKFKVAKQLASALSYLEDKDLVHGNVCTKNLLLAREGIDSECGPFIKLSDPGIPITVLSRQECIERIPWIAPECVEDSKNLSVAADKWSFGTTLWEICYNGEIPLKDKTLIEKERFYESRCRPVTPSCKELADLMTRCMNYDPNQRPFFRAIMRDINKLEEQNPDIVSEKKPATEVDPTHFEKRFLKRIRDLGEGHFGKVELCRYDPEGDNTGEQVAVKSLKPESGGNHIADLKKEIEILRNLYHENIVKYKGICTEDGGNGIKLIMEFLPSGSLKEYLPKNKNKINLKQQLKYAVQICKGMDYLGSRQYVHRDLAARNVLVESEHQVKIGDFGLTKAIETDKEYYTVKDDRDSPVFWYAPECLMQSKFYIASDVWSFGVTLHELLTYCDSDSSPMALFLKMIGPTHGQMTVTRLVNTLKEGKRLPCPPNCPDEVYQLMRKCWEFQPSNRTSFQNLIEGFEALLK
Chain of Aurora kinase B (Q96GD4 whole entry, the tested form may be a part): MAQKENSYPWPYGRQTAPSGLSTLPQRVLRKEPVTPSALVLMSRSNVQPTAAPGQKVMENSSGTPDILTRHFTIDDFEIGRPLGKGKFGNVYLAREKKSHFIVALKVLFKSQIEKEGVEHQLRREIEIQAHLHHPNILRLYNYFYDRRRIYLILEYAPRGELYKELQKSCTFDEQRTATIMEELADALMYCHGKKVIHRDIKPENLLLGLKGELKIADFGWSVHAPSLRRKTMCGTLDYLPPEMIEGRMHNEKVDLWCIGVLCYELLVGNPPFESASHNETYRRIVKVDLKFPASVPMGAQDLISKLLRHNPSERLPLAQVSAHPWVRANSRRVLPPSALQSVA

IC50 [1] [nM] | IC50 [2] [µM] | Ratio IC50 (Homo sapiens) | IC50 [3] [nM] | IC50 [4] [nM] | IC50 [5] [µM] | IC50 (Aurora kinase B) [nM] | IC50 [6] [nM] | Compound | other results
57 | 1.2 | 463 | 2270 | 4.9 | 1.28 | 16 | 87 | COc1ccc(-c2nc3c(NCC4CCNCC4)c(Cl)cnc3[nH]2)cc1OC | –
– | 1.54 | 314 | 2890 | 9 | – | – | 37 | COc1ccc(-c2nc3c(NCC4CCNCC4)c(Cl)cnc3[nH]2)c(C)c1 | –
114 | 8.3 | – | > 22000 | 22 | 28 | 132 | 39 | COc1cc(F)c(-c2nc3c(NCC4CCNCC4)c(Cl)cnc3[nH]2)cc1OC | Activity [9]: 2.5%; inhibition [7]: inactive; inhibition [8]: Active; Activity [10]: 38.9%; Activity [11]: 6.5%; inhibition in vivo at 200 mg/kg (Mus musculus [12]): 80%; Activity [13]: 27%; inhibition (Mus musculus [14]): inactive; Activity [15]: 10.8%; Activity [16]: 13.1%; Activity [17]: 56.1%; Activity [18]: 7%; Activity [19]: 30.3%; Activity [20]: 7.9%
– | 1.13 | 85 | 1450 | 17 | – | – | 29 | COc1ccc(-c2nc3c(NCC4CCNCC4)c(Cl)cnc3[nH]2)cc1 | –

More lines, now with the values behind:

Compound | IC50 [1] [nM] | IC50 [2] [µM] | Ratio IC50 (Homo sapiens) | IC50 [3] [nM] | IC50 [4] [nM] | IC50 [5] [µM] | IC50 (Aurora kinase B) [nM] | IC50 [6] [nM] | other results
Cc1cc(Nc2nc(N[C@@H](C)c3ncc(F)cn3)ncc2Cl)[nH]n1 | – | – | – | – | – | – | – | – | inhibition [7]: Active; inhibition [8]: Active
COc1cc(F)c(-c2nc3c(NCC4CCNCC4)c(Cl)cnc3[nH]2)cc1F | – | 7.47 | > 99 | > 17000 | 173 | – | – | 71 | –
COc1ccc(F)c(-c2nc3c(NCC4CCNCC4)c(Cl)cnc3[nH]2)c1 | 76 | 6.14 | 267 | 13100 | 49 | 11.4 | 157 | 76 | –
Cc1cc(Nc2cc(N3CCN(C)CC3)nc(Sc3ccc(NC(=O)C4CC4)cc3)n2)n[nH]1 | – | – | – | – | – | – | – | – | Activity [9]: 12.5%; Activity [10]: 60.3%; Activity [11]: 0.9%; Activity [13]: 57.3%; Activity [15]: 18.2%; Activity [16]: 15.5%; Activity [17]: 2.6%; Activity [18]: 1.6%; Activity [19]: 4.5%; Activity [20]: 26.6%
